Measurements from ChEMBL document CHEMBL5303573, “Mapping human microbiome drug metabolism by gut bacteria and their genes” (Nature, 2019).

How the values were obtained:
[1] = The drug is tested on Dorea formicigenerans strain: ATCC27755 for biotransformation. The drug concentrations were measured before and after a 12-h incubation by liquid-chromatography-coupled mass spectrometry (LC–MS); details: 2 µM
[2] = The drug is tested on Bacteroides uniformis strain: ATCC8492 for biotransformation. The drug concentrations were measured before and after a 12-h incubation by liquid-chromatography-coupled mass spectrometry (LC–MS); details: 2 µM
[3] = The drug is tested on Bacteroides fragilis strain: HMW610 for biotransformation. The drug concentrations were measured before and after a 12-h incubation by liquid-chromatography-coupled mass spectrometry (LC–MS); details: 2 µM
[4] = The drug is tested on Enterobacter cancerogenus strain: ATCC35316 for biotransformation. The drug concentrations were measured before and after a 12-h incubation by liquid-chromatography-coupled mass spectrometry (LC–MS); details: 2 µM
[5] = bacteroides fragilis, 12 h, 2 µM
Description: The drug is tested on Bacteroides fragilis strain: DS-208 for biotransformation. The drug concentrations were measured before and after a 12-h incubation by liquid-chromatography-coupled mass spectrometry (LC–MS)

[6] = anaerostipes sp., 12 h, 2 µM
Description: The drug is tested on Anaerostipes sp. strain: fecal isolate for biotransformation. The drug concentrations were measured before and after a 12-h incubation by liquid-chromatography-coupled mass spectrometry (LC–MS)

[7] = akkermansia muciniphila, 12 h, 2 µM
Description: The drug is tested on Akkermansia muciniphila strain: ATCC BAA-835 for biotransformation. The drug concentrations were measured before and after a 12-h incubation by liquid-chromatography-coupled mass spectrometry (LC–MS)

[8] = bacteroides intestinalis, 12 h, 2 µM
Description: The drug is tested on Bacteroides intestinalis strain: DSM17393 for biotransformation. The drug concentrations were measured before and after a 12-h incubation by liquid-chromatography-coupled mass spectrometry (LC–MS)

[9] = The drug is tested on Clostridium asparagiforme strain: DSM15981 for biotransformation. The drug concentrations were measured before and after a 12-h incubation by liquid-chromatography-coupled mass spectrometry (LC–MS); assay type: ADME; design: dose 2 uM, timepoint 0 vs 12 hours; details: enterocloster asparagiformis, 2 µM
[10] = The drug is tested on Odoribacter splanchnicus strain: fecal isolate for biotransformation. The drug concentrations were measured before and after a 12-h incubation by liquid-chromatography-coupled mass spectrometry (LC–MS); details: 2 µM
[11] = The drug is tested on Subdoligranulum variabile strain: DSM15176 for biotransformation. The drug concentrations were measured before and after a 12-h incubation by liquid-chromatography-coupled mass spectrometry (LC–MS); details: 2 µM
[12] = The drug is tested on Bacteroides xylanisolvens strain: DSM18836 for biotransformation. The drug concentrations were measured before and after a 12-h incubation by liquid-chromatography-coupled mass spectrometry (LC–MS); details: 2 µM
[13] = The drug is tested on Bacteroides caccae strain: ATCC43185 for biotransformation. The drug concentrations were measured before and after a 12-h incubation by liquid-chromatography-coupled mass spectrometry (LC–MS); details: 2 µM
[14] = The drug is tested on Blautia luti strain: DSM14534 for biotransformation. The drug concentrations were measured before and after a 12-h incubation by liquid-chromatography-coupled mass spectrometry (LC–MS); assay type: ADME; design: dose 2 uM, timepoint 0 vs 12 hours; details: 2 µM
[15] = segatella copri, 12 h, 2 µM
Description: The drug is tested on Prevotella copri strain: DSM18205 for biotransformation. The drug concentrations were measured before and after a 12-h incubation by liquid-chromatography-coupled mass spectrometry (LC–MS)

[16] = The drug is tested on Bacteroides vulgatus strain: ATCC8482 for biotransformation. The drug concentrations were measured before and after a 12-h incubation by liquid-chromatography-coupled mass spectrometry (LC–MS); details: phocaeicola vulgatus, 2 µM
[17] = The drug is tested on Clostridium symbiosum strain: ATCC14940 for biotransformation. The drug concentrations were measured before and after a 12-h incubation by liquid-chromatography-coupled mass spectrometry (LC–MS); details: 2 µM
[18] = The drug is tested on Coprococcus comes strain: ATCC27758 for biotransformation. The drug concentrations were measured before and after a 12-h incubation by liquid-chromatography-coupled mass spectrometry (LC–MS); assay type: ADME; design: dose 2 uM, timepoint 0 vs 12 hours; details: 2 µM
[19] = The drug is tested on Bacteroides fragilis strain: HMW615 for biotransformation. The drug concentrations were measured before and after a 12-h incubation by liquid-chromatography-coupled mass spectrometry (LC–MS); details: 2 µM
[20] = The drug is tested on Bacteroides cellulosilyticus strain: DSM14838 for biotransformation. The drug concentrations were measured before and after a 12-h incubation by liquid-chromatography-coupled mass spectrometry (LC–MS); details: 2 µM

## CN(C)CC(c1ccc(O)cc1)C1(O)CCCCC1.O=C(O)CCC(=O)O (stereo not given) [DESVENLAFAXINE SUCCINATE]
[1]
  Bacterial Biotransformation: Compound NOT metabolized
[2]
  Bacterial Biotransformation: Compound NOT metabolized
[3]
  Bacterial Biotransformation: Compound NOT metabolized
[4]
  Bacterial Biotransformation: Compound NOT metabolized
[5]
  Bacterial Biotransformation: Compound NOT metabolized
[6]
  Bacterial Biotransformation: Compound NOT metabolized
[7]
  Bacterial Biotransformation: Compound NOT metabolized
[8]
  Bacterial Biotransformation: Compound NOT metabolized
[9]
  Bacterial Biotransformation: Compound NOT metabolized
[10]
  Bacterial Biotransformation: Compound NOT metabolized
[11]
  Bacterial Biotransformation: Compound NOT metabolized
[12]
  Bacterial Biotransformation: Compound NOT metabolized
[13]
  Bacterial Biotransformation: Compound NOT metabolized
[14]
  Bacterial Biotransformation: Compound NOT metabolized
[15]
  Bacterial Biotransformation: Compound NOT metabolized
[16]
  Bacterial Biotransformation: Compound NOT metabolized
[17]
  Bacterial Biotransformation: Compound NOT metabolized
[18]
  Bacterial Biotransformation: Compound NOT metabolized

## CCCN1C[C@H](CSC)C[C@@H]2c3cccc4[nH]cc(c34)C[C@H]21.CS(=O)(=O)O [PERGOLIDE MESYLATE]
[1]
  Bacterial Biotransformation: Compound NOT metabolized
[19]
  Bacterial Biotransformation: Compound NOT metabolized
[2]
  Bacterial Biotransformation: Compound NOT metabolized
[4]
  Bacterial Biotransformation: Compound NOT metabolized
[5]
  Bacterial Biotransformation: Compound NOT metabolized
[6]
  Bacterial Biotransformation: Compound NOT metabolized
[8]
  Bacterial Biotransformation: Compound NOT metabolized
[9]
  Bacterial Biotransformation: Compound NOT metabolized
[11]
  Bacterial Biotransformation: Compound NOT metabolized
[12]
  Bacterial Biotransformation: Compound NOT metabolized
[13]
  Bacterial Biotransformation: Compound NOT metabolized
[14]
  Bacterial Biotransformation: Compound NOT metabolized
[15]
  Bacterial Biotransformation: Compound NOT metabolized
[16]
  Bacterial Biotransformation: Compound NOT metabolized
[17]
  Bacterial Biotransformation: Compound NOT metabolized
[18]
  Bacterial Biotransformation: Compound NOT metabolized

## CCN(CC)C(C)CN1c2ccccc2Sc2ccccc21 (stereo not given) [ETHOPROPAZINE]
[1]
  Bacterial Biotransformation: Compound NOT metabolized
[2]
  Bacterial Biotransformation: Compound metabolized
[3]
  Bacterial Biotransformation: Compound NOT metabolized
[20]
  Bacterial Biotransformation: Compound NOT metabolized
[5]
  Bacterial Biotransformation: Compound NOT metabolized
[6]
  Bacterial Biotransformation: Compound NOT metabolized
[7]
  Bacterial Biotransformation: Compound NOT metabolized
[8]
  Bacterial Biotransformation: Compound metabolized
[9]
  Bacterial Biotransformation: Compound NOT metabolized
[10]
  Bacterial Biotransformation: Compound metabolized
[11]
  Bacterial Biotransformation: Compound NOT metabolized
[12]
  Bacterial Biotransformation: Compound metabolized
[13]
  Bacterial Biotransformation: Compound metabolized
[14]
  Bacterial Biotransformation: Compound NOT metabolized
[16]
  Bacterial Biotransformation: Compound metabolized
[17]
  Bacterial Biotransformation: Compound NOT metabolized
[18]
  Bacterial Biotransformation: Compound NOT metabolized

## COC(=O)C1=C(C)NC(C)=C(C(=O)OC(C)C)C1c1cccc2nonc12 (stereo not given) [ISRADIPINE]
[1]
  Bacterial Biotransformation: Compound NOT metabolized
[19]
  Bacterial Biotransformation: Compound NOT metabolized
[2]
  Bacterial Biotransformation: Compound NOT metabolized
[3]
  Bacterial Biotransformation: Compound NOT metabolized
[4]
  Bacterial Biotransformation: Compound NOT metabolized
[5]
  Bacterial Biotransformation: Compound NOT metabolized
[6]
  Bacterial Biotransformation: Compound NOT metabolized
[7]
  Bacterial Biotransformation: Compound NOT metabolized
[8]
  Bacterial Biotransformation: Compound NOT metabolized
[9]
  Bacterial Biotransformation: Compound NOT metabolized
[10]
  Bacterial Biotransformation: Compound NOT metabolized
[11]
  Bacterial Biotransformation: Compound NOT metabolized
[12]
  Bacterial Biotransformation: Compound NOT metabolized
[14]
  Bacterial Biotransformation: Compound NOT metabolized
[15]
  Bacterial Biotransformation: Compound NOT metabolized
[16]
  Bacterial Biotransformation: Compound NOT metabolized
[17]
  Bacterial Biotransformation: Compound NOT metabolized
[18]
  Bacterial Biotransformation: Compound NOT metabolized

## CCC(C)n1ncn(-c2ccc(N3CCN(c4ccc(OCC5COC(Cn6cncn6)(c6ccc(Cl)cc6Cl)O5)cc4)CC3)cc2)c1=O (stereo not given) [ITRACONAZOLE]
[1]
  Bacterial Biotransformation: Compound NOT metabolized
[19]
  Bacterial Biotransformation: Compound NOT metabolized
[2]
  Bacterial Biotransformation: Compound NOT metabolized
[3]
  Bacterial Biotransformation: Compound NOT metabolized
[4]
  Bacterial Biotransformation: Compound NOT metabolized
[20]
  Bacterial Biotransformation: Compound NOT metabolized
[5]
  Bacterial Biotransformation: Compound NOT metabolized
[6]
  Bacterial Biotransformation: Compound NOT metabolized
[7]
  Bacterial Biotransformation: Compound NOT metabolized
[8]
  Bacterial Biotransformation: Compound NOT metabolized
[9]
  Bacterial Biotransformation: Compound NOT metabolized
[10]
  Bacterial Biotransformation: Compound NOT metabolized
[12]
  Bacterial Biotransformation: Compound NOT metabolized
[13]
  Bacterial Biotransformation: Compound NOT metabolized
[14]
  Bacterial Biotransformation: Compound NOT metabolized
[15]
  Bacterial Biotransformation: Compound NOT metabolized
[16]
  Bacterial Biotransformation: Compound NOT metabolized
[17]
  Bacterial Biotransformation: Compound NOT metabolized
[18]
  Bacterial Biotransformation: Compound NOT metabolized

## Br.COc1ccc2c(c1)[C@]13CCCC[C@@H]1[C@H](C2)N(C)CC3.O [DEXTROMETHORPHAN HYDROBROMIDE]
[1]
  Bacterial Biotransformation: Compound NOT metabolized
[2]
  Bacterial Biotransformation: Compound NOT metabolized
[4]
  Bacterial Biotransformation: Compound NOT metabolized
[5]
  Bacterial Biotransformation: Compound NOT metabolized
[6]
  Bacterial Biotransformation: Compound NOT metabolized
[8]
  Bacterial Biotransformation: Compound NOT metabolized
[9]
  Bacterial Biotransformation: Compound NOT metabolized
[11]
  Bacterial Biotransformation: Compound NOT metabolized
[13]
  Bacterial Biotransformation: Compound NOT metabolized
[14]
  Bacterial Biotransformation: Compound NOT metabolized
[16]
  Bacterial Biotransformation: Compound NOT metabolized
[17]
  Bacterial Biotransformation: Compound NOT metabolized
[18]
  Bacterial Biotransformation: Compound NOT metabolized

## COCCCC/C(=N\OCCN)c1ccc(C(F)(F)F)cc1.O=C(O)/C=C\C(=O)O [FLUVOXAMINE MALEATE]
[1]
  Bacterial Biotransformation: Compound NOT metabolized
[19]
  Bacterial Biotransformation: Compound NOT metabolized
[2]
  Bacterial Biotransformation: Compound NOT metabolized
[20]
  Bacterial Biotransformation: Compound NOT metabolized
[6]
  Bacterial Biotransformation: Compound NOT metabolized
[8]
  Bacterial Biotransformation: Compound NOT metabolized
[9]
  Bacterial Biotransformation: Compound NOT metabolized
[11]
  Bacterial Biotransformation: Compound NOT metabolized
[12]
  Bacterial Biotransformation: Compound NOT metabolized
[13]
  Bacterial Biotransformation: Compound NOT metabolized
[14]
  Bacterial Biotransformation: Compound NOT metabolized
[16]
  Bacterial Biotransformation: Compound metabolized
[17]
  Bacterial Biotransformation: Compound NOT metabolized

## CC1OC(OC2C(O)CC(OC3C(O)CC(OC4CCC5(C)C(CCC6C5CCC5(C)C(C7=CC(=O)OC7)CCC65O)C4)OC3C)OC2C)CC(O)C1O (stereo not given)
[1]
  Bacterial Biotransformation: Compound NOT metabolized
[19]
  Bacterial Biotransformation: Compound metabolized
[2]
  Bacterial Biotransformation: Compound metabolized
[3]
  Bacterial Biotransformation: Compound metabolized
[4]
  Bacterial Biotransformation: Compound NOT metabolized
[5]
  Bacterial Biotransformation: Compound metabolized
[6]
  Bacterial Biotransformation: Compound NOT metabolized
[7]
  Bacterial Biotransformation: Compound NOT metabolized
[9]
  Bacterial Biotransformation: Compound NOT metabolized
[10]
  Bacterial Biotransformation: Compound metabolized
[11]
  Bacterial Biotransformation: Compound NOT metabolized
[12]
  Bacterial Biotransformation: Compound metabolized
[13]
  Bacterial Biotransformation: Compound NOT metabolized
[14]
  Bacterial Biotransformation: Compound NOT metabolized
[15]
  Bacterial Biotransformation: Compound metabolized
[16]
  Bacterial Biotransformation: Compound metabolized
[17]
  Bacterial Biotransformation: Compound NOT metabolized
[18]
  Bacterial Biotransformation: Compound NOT metabolized

## CCN(CC)C(=O)C1(c2ccccc2)CC1CN (stereo not given)
[1]
  Bacterial Biotransformation: Compound NOT metabolized
[19]
  Bacterial Biotransformation: Compound NOT metabolized
[3]
  Bacterial Biotransformation: Compound NOT metabolized
[4]
  Bacterial Biotransformation: Compound NOT metabolized
[5]
  Bacterial Biotransformation: Compound NOT metabolized
[6]
  Bacterial Biotransformation: Compound NOT metabolized
[7]
  Bacterial Biotransformation: Compound NOT metabolized
[8]
  Bacterial Biotransformation: Compound NOT metabolized
[9]
  Bacterial Biotransformation: Compound NOT metabolized
[10]
  Bacterial Biotransformation: Compound NOT metabolized
[11]
  Bacterial Biotransformation: Compound NOT metabolized
[12]
  Bacterial Biotransformation: Compound NOT metabolized
[13]
  Bacterial Biotransformation: Compound NOT metabolized
[14]
  Bacterial Biotransformation: Compound NOT metabolized
[15]
  Bacterial Biotransformation: Compound NOT metabolized
[16]
  Bacterial Biotransformation: Compound NOT metabolized
[17]
  Bacterial Biotransformation: Compound NOT metabolized
[18]
  Bacterial Biotransformation: Compound NOT metabolized
